Results taken from ChEMBL document CHEMBL4400553, “Semisynthesis of epoxy-pimarane diterpenoids from kirenol and their FXa inhibition activities” (Bioorg Med Chem, 2019).

Target: Coagulation factor X (Homo sapiens, UniProt P00742)
Test: Inhibition of human factor Xa using Z-D-Arg-Gly-Arg-pNA.2HCl as substrate preincubated for 15 mins followed by substrate addition by UV absorption analysis

Sequence of Coagulation factor X (P00742 41-179 limits assumed): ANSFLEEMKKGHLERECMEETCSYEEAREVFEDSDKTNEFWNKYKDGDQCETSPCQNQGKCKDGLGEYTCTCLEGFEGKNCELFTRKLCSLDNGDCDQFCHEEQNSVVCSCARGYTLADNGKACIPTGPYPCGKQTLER
Sequence of Coagulation factor X (P00742 235-488 limits assumed): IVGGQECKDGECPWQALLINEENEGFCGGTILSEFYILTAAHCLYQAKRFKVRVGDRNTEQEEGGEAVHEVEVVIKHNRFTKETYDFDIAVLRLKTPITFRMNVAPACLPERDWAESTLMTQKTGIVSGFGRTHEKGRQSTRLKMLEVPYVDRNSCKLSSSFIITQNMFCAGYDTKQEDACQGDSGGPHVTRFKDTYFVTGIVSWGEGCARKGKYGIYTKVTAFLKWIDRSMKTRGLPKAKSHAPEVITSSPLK

Row | SMILES | IC50 [µM]
1 | C[C@@]1(CO)C[C@@H](O)C[C@@]2(C)C3=C(CC[C@H]12)[C@H]1OC[C@H](O)[C@@]1(C)CC3 | 27.9
2 | C[C@]12CC[C@@H]3[C@](CC[C@@H]4[C@](C)(CO)C[C@@H](O)C[C@]43C)(C1)OC2=O | 1.7
3 | C[C@@]1(CO)C[C@@H](O)C[C@@]2(C)[C@@H]3CC[C@](C)(C(=O)O)C=C3CC[C@H]12 | 0.22
4 | C[C@@]1(CO)C[C@@H](O)C[C@@]2(C)[C@@H]3CC[C@@]4(C)[C@H](OC[C@@H]4O)C3=CC[C@H]12 | 17.8
5 | C[C@@]1(CO)C=C2CC[C@@H]3[C@](C)(CO)C[C@@H](O)C[C@@]3(C)[C@@H]2CC1 | 0.96
6 | CC1(C)OC[C@@H]([C@]2(C)C=C3CC[C@@H]4[C@](C)(CO)C[C@@H](O)C[C@@]4(C)[C@@H]3CC2)O1 | 7.2
7 | C[C@]12CC[C@@H]3[C@](CC[C@@H]4[C@](C)(CO)C[C@@H](O)C[C@]43C)(C1)OC2 | 7.4
8 | C[C@@]1(CO)C[C@@H](O)C[C@@]2(C)[C@@H]3CC[C@](C)([C@@H](O)CO)C=C3CC[C@H]12 [KIRENOL] | 2.5

Next, values leading:

Row | IC50 [µM] | SMILES
9 | 6.1 | C[C@]12CC[C@@H]3[C@](CC[C@@H]4[C@](C)(CO)C[C@@H](O)C[C@]43C)(C1)O[C@H]2CO
10 | 7.9 | C[C@@]1(CO)C[C@@H](O)C[C@]2(C)[C@@H]1CC[C@@]13O[C@H](CO)[C@@](C)(CC[C@@H]21)[C@H]3Br
11 | 18.5 | CC1(C)OC[C@@H]([C@@]2(C)CC[C@@H]3C4(CC[C@@H]5[C@](C)(CO)C[C@@H](O)C[C@@]35C)OC42)O1 (some centres not stated)
12 | 4.7 | C[C@@]1(CO)C[C@@H](O)C[C@]2(C)[C@@H]1CC[C@@]13O[C@@H](CO)[C@@](C)(CC[C@@H]21)[C@H]3Br
